Test results published in PubChem BioAssay AID1963839 (Molecular Pharmacology Branch, DTP, NCI, 2024).

System: 817829-284-R-J1-PDC complex spheroid viability
Experiment: Anticancer human tumor 817829-284-R-J1-PDC patient-derived colon adenocarcinoma cell line growth inhibition [POLQ]
Details: for IC50: curve of first compound; for viability, T/C: stronger effect = lower value
Method: Multicellular complex tumor spheroid response to Polymerase (POL) inhibitors (novobiocin, ART-558, RP6685) in combination with a variety of drugs and investigational agents in selected tumor cell lines
The POL inhibitors (novobiocin, ART-558, and RP6685) were evaluated both individually and in combination with standard of care and investigational anticancer small molecules within a complex spheroid model of solid tumors. . Complex spheroids include a stromal component modeled by human endothelial cells (HUVEC) and fibroblasts modeled by human mesenchymal stem cells (MSCs). The concentration ranges selected for each drug and investigational agent were based upon clinically achievable concentrations if the clinical Cmax of the agent was known.
Compounds. The drugs and investigational agents: novobiocin (NSC847541), ART-558 (NSC835418), RP-6685 (NSC848927), peposertib (NSC802822), ceralasertib (NSC780249), elimusertib (NSC800525), camonsertib (NSC841442), AZD-1390 (NSC803789), olaparib (NSC753686), talazoparib (NSC767125), rucaparib (NSC756644), sotorasib (NSC818433), MRTX-1133 (NSC836407), SN-38 (NSC673596), topotecan (NSC609699), epotoside (NSC141540), doxorubicin (NSC123127), gemcitabine (NSC613327), 5-fluorouracil (NSC19893), paclitaxel (NSC125973), vemurafenib (NSC761431), MSA-2 (NSC828583), SN-011 (NSC837082), adavosertib (NSC754352), prexasertib (NSC758257), carboplatin (NSC241240) and oxaliplatin (NSC266046), were obtained from the National Cancer Institute (NCI) Developmental Therapeutics Program Chemical Repository (21). The FDA-approved anticancer drug set is available from the Developmental Therapeutics Program at https://dtp.cancer.gov/organization/dscb/obtaining/. […] The stock solutions were prepared in dimethyl sulfoxide (DMSO, Sigma-Aldrich, St. Louis, MO, cat. D2650), except for the platinum compounds which were prepared in saline (Quality Biological, Gaithersburg, MD, cat. 114-055-101), at 800-fold the tested concentration and stored at -70 degrees C prior to their use. All drugs and investigational agents were tested over a range starting from a high concentration at or near the clinical Cmax and decreasing in half-log increments. If the clinical Cmax for an agent had not been determined, the highest concentration tested was 10 microM, except for SN-38, which was tested at a high concentration of 1 microM.
Cell Culture. All cells were maintained in an incubator at 37 degrees C and 5% CO2 with 95% humidity. The PDC lines were cultured according to standard operating procedures established by the NCI PDMR (https://pdmr.cancer.gov). Table 3 of the manuscript, lists the cell lines along with the number of the three cell types plated to form the mct-spheroids and media for tumor cell growth. After thawing, all PDC lines, except 997537-175-T-J1-PDC and 415267-285-R-J2-PDC, were cultured in Matrigel-coated flasks prepared with a working solution of 1X Ham's F-12 nutrient mix, without supplementation (Thermo Fisher Scientific, cat. 11765054), 100 U/mL penicillin-streptomycin (Thermo Fisher Scientific, cat. 15140122), and 2.5% Matrigel (Corning Inc., Corning, NY, cat. 354248) for the first three passages. The two PDC lines 997537-175-T-J1-PDC and 415267-285-R-J2-PDC were cultured on uncoated flasks. The 857933-349-R-J2-PDC line was cultured in 6C/Colon 1B media containing advanced DMEM/F-12 (Thermo Fisher Scientific, cat. 12634028), 10 mM HEPES (Thermo Fisher Scientific, cat. 15630080), 1X GlutaMAX supplement (Thermo Fisher Scientific, cat. 35050061), 0.1 mg/mL primocin (InvivoGen, San Diego, CA, cat. ant-pm-2), 10% defined fetal bovine serum, heat inactivated (HyClone Laboratories Inc., Logan, UT, cat. SH30070.03HI), 50% L-WRN conditioned media (ATCC, cat. CRL-3276), 1.25 mM N-Acetyl-L-cysteine (Sigma-Aldrich, cat. A9165), 10 mM nicotinamide (Sigma-Aldrich, cat. N0636), 1X B-27 supplement (Thermo Fisher Scientific, cat. 17504044), 1X N-2 supplement (Thermo Fisher Scientific, cat. […]

[1] = second compound 0.0316 µM, first compound 0.0316 µM
[2] = second compound 0.0316 µM, first compound 0.1 µM
[3] = second compound 0.0316 µM, first compound 0.316 µM
[4] = second compound 0.0316 µM, first compound 1 µM
[5] = second compound 0.0316 µM, first compound 3.16 µM
[6] = second compound 0.0316 µM, first compound 10 µM
[7] = second compound 0.1 µM, first compound 0.0316 µM
[8] = second compound 0.1 µM, first compound 0.1 µM
[9] = second compound 0.1 µM, first compound 0.316 µM
[10] = second compound 0.1 µM, first compound 1 µM
[11] = second compound 0.1 µM, first compound 3.16 µM
[12] = second compound 0.1 µM, first compound 10 µM
[13] = second compound 0.316 µM, first compound 0.0316 µM
[14] = second compound 0.316 µM, first compound 0.1 µM
[15] = second compound 0.316 µM, first compound 0.316 µM
[16] = second compound 0.316 µM, first compound 1 µM
[17] = second compound 0.316 µM, first compound 3.16 µM
[18] = second compound 0.316 µM, first compound 10 µM
[19] = second compound 1 µM, first compound 0.0316 µM
[20] = second compound 1 µM, first compound 0.1 µM
[21] = second compound 1 µM, first compound 0.316 µM
[22] = second compound 1 µM, first compound 1 µM
[23] = second compound 1 µM, first compound 3.16 µM
[24] = second compound 1 µM, first compound 10 µM
[25] = second compound 3.16 µM, first compound 0.0316 µM
[26] = second compound 3.16 µM, first compound 0.1 µM
[27] = second compound 3.16 µM, first compound 0.316 µM
[28] = second compound 3.16 µM, first compound 1 µM
[29] = second compound 3.16 µM, first compound 3.16 µM
[30] = second compound 3.16 µM, first compound 10 µM
[31] = second compound 10 µM, first compound 0.0316 µM
[32] = second compound 10 µM, first compound 0.1 µM
[33] = second compound 10 µM, first compound 0.316 µM
[34] = second compound 10 µM, first compound 1 µM
[35] = second compound 10 µM, first compound 3.16 µM
[36] = second compound 10 µM, first compound 10 µM
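Note: spheroids exposed to compounds for 7 days.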
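Throughout, for viability, T/C: 100% = DMSO vehicle-treated spheroids.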

Nc1ccn(C2OC(CO)C(O)C2(F)F)c(=O)n1 (centres undefined) + COC1C(OC(N)=O)C(O)C(Oc2ccc3c(O)c(NC(=O)c4ccc(O)c(CC=C(C)C)c4)c(=O)oc3c2C)OC1(C)C
IC50 (second compound 0.0316 µM): < 0.0316 µM
IC50 (second compound 0.1 µM): < 0.0316 µM
IC50 (second compound 0.316 µM): < 0.0316 µM
IC50 (second compound 1 µM): < 0.0316 µM
IC50 (second compound 3.16 µM): < 0.0316 µM
IC50 (second compound 10 µM): < 0.0316 µM
viability, T/C [1]: 5.87%
viability, T/C [2]: 4.61%
viability, T/C [3]: 5.48%
viability, T/C [4]: 4.5%
viability, T/C [5]: 3.65%
viability, T/C [6]: 3.38%
viability, T/C [7]: 5.96%
viability, T/C [8]: 4.96%
viability, T/C [9]: 5.53%
viability, T/C [10]: 4.76%
viability, T/C [11]: 3.8%
viability, T/C [12]: 3.28%
viability, T/C [13]: 5.1%
viability, T/C [14]: 4.62%
viability, T/C [15]: 5.85%
viability, T/C [16]: 5.46%
viability, T/C [17]: 3.59%
viability, T/C [18]: 2.73%
viability, T/C [19]: 4.99%
viability, T/C [20]: 4.37%
viability, T/C [21]: 5.56%
viability, T/C [22]: 4.58%
viability, T/C [23]: 4.04%
viability, T/C [24]: 3.14%
viability, T/C [25]: 4.75%
viability, T/C [26]: 4.78%
viability, T/C [27]: 5.45%
viability, T/C [28]: 4.57%
viability, T/C [29]: 3.73%
viability, T/C [30]: 3.65%
viability, T/C [31]: 6.16%
viability, T/C [32]: 4.98%
viability, T/C [33]: 5.43%
viability, T/C [34]: 5.17%
viability, T/C [35]: 4.49%
viability, T/C [36]: 3.17%

O=c1[nH]cc(F)c(=O)[nH]1 + COC1C(OC(N)=O)C(O)C(Oc2ccc3c(O)c(NC(=O)c4ccc(O)c(CC=C(C)C)c4)c(=O)oc3c2C)OC1(C)C
IC50 (second compound 0.0316 µM): 2.4 µM
IC50 (second compound 0.1 µM): 8.96 µM
IC50 (second compound 0.316 µM): 3.42 µM
IC50 (second compound 1 µM): 2.92 µM
IC50 (second compound 3.16 µM): 2.13 µM
IC50 (second compound 10 µM): 8.93 µM
viability, T/C [1]: 97.6%
viability, T/C [2]: 144%
viability, T/C [3]: 102%
viability, T/C [4]: 68.8%
viability, T/C [5]: 42.6%
viability, T/C [6]: 43.1%
viability, T/C [7]: 90.7%
viability, T/C [8]: 94%
viability, T/C [9]: 92.5%
viability, T/C [10]: 77.6%
viability, T/C [11]: 50.2%
viability, T/C [12]: 50%
viability, T/C [13]: 80%
viability, T/C [14]: 84.2%
viability, T/C [15]: 70%
viability, T/C [16]: 70.2%
viability, T/C [17]: 51.1%
viability, T/C [18]: 26.6%
viability, T/C [19]: 98.3%
viability, T/C [20]: 86.8%
viability, T/C [21]: 95.1%
viability, T/C [22]: 86.5%
viability, T/C [23]: 47.2%
viability, T/C [24]: 47.3%
viability, T/C [25]: 128%
viability, T/C [26]: 114%
viability, T/C [27]: 108%
viability, T/C [28]: 57.8%
viability, T/C [29]: 50.4%
viability, T/C [30]: 39.9%
viability, T/C [31]: 107%
viability, T/C [32]: 101%
viability, T/C [33]: 77.9%
viability, T/C [34]: 84.3%
viability, T/C [35]: 62.3%
viability, T/C [36]: 47.4%
